The results in this text go back to US20090143410A1, “Isoxazolines for Controlling Invertebrate Pests” (priority 2005, published 2009).

A value given as a limit tells only on which side of the number the result lay.

The subject of this assay is potato leafhopper (Empoasca fabae Harris). Briefly: Test D: control of potato leafhopper on bean plant, contact and/or systemic. The following applies: sprayed at 50 ppm, 18 to 21 day old adults on Longio bean plant, 6 days, 19-21° C., 50-70% relative humidity, read-out: pest control: mortality. The class given is in vivo. As for the experimental part: Test compounds were formulated using a solution containing 10% acetone, 90% water and 300 ppm X-77™ Spreader Lo-Foam Formula non-ionic surfactant containing alkylarylpolyoxyethylene, free fatty acids, glycols and isopropanol (Loveland Industries, Inc. Greeley, Colo., USA). The formulated compounds were applied in 1 mL of liquid through a SUJ2 atomizer nozzle with ⅛ JJ custom body (Spraying Systems Co. Wheaton, Ill., USA) positioned 1.27 cm (0.5 inches) above the top of each test unit. All experimental compounds in these tests were sprayed at 250 ppm replicated three times. After spraying of the formulated test compound, each test unit was allowed to dry for 1 h and then a black, screened cap was placed on top. The test units were held for 6 days in a growth chamber at 25° C. and 70% relative humidity. Plant feeding damage was then visually assessed based on foliage consumed.
For evaluating control of potato leafhopper (Empoasca fabae Harris) through contact and/or systemic means, the test unit consisted of a small open container with a 5-6-day old Longio bean plant (primary leaves emerged) inside. White sand was added to the top of the soil and one of the primary leaves was excised prior to application. […] Each test unit was then visually assessed for insect mortality.

Take `O=C(NCc1ccccn1)c1cnc(C2=NOC(c3cc(Cl)cc(Cl)c3)(C(F)(F)F)C2)nc1C(F)(F)F` (centres unmarked) [Compound 7, 2-[5-(3,5-dichlorophenyl)-4,5-dihydro-5-(trifluoromethyl)-3-isoxazolyl]-N-(2-pyridinylmethyl)-4-(trifluoromethyl)-5-pyrimidinecarboxamide]: the mortality at 50 ppm was not below 80%.

Regarding `O=C(NCC(F)(F)F)c1cnc(C2=NOC(c3cc(Cl)cc(Cl)c3)(C(F)(F)F)C2)nc1C(F)(F)F` (centres unmarked) [Compound 10, 2-[5-(3,5-dichlorophenyl)-4,5-dihydro-5-(trifluoromethyl)-3-isoxazolyl]-N-(2,2,2-trifluoroethyl)-4-(trifluoromethyl)-5-pyrimidinecarboxamide], the mortality at 50 ppm is not below 80%.
